Values quoted from earlier work as cited in patent US20240261236A1, “METHODS OF USING NMDA RECEPTOR ANTAGONISTS” (Seelos Therapeutics, Inc., priority 2021, published 2024).

Key:
[1] = Leung and Baillie 1986; cited from earlier work
[2] = target: NMDA receptor; conditions: binds to the NMDA receptor; Moaddel et al. 2013; cited from earlier work
[3] = 56 mg or 84 mg dose; Spravato label; cited from earlier work
[4] = 56 mg or 84 mg doses; Spravato label; cited from earlier work

Row | Compound | Ki [2] [µM] | also measured
1 | NC1(c2ccccc2Cl)CCCCC1=O (centres unmarked) [norketamine] |  | anesthetic activity [1]: anesthetic activity
2 | N[C@]1(c2ccccc2Cl)CCC[C@H](O)C1=O [(2S,6S)-hydroxynorketamine] | ~21.2 | 
3 | CN[C@]1(c2ccccc2Cl)CCCCC1=O [(S)-ketamine, (S)-2-(2-chlorophenyl)-2-(methylamino)cyclohexanone] |  | subjects who developed sedation [3]: 48-61%; patients who developed dissociative changes on the CADSS assessment [4]: 61%-69%
4 | N[C@@]1(c2ccccc2Cl)CCCCC1=O [(R)-norketamine] | ~26.5 | 
5 | NC1(c2ccccc2Cl)CCCC(O)C1=O (centres unmarked) [6-hydroxynorketamine] |  | anesthetic activity [1]: no anesthetic or locomotor activity
6 | N[C@@]1(c2ccccc2Cl)CCC[C@@H](O)C1=O [(2R,6R)-hydroxynorketamine] | > 100 | 
7 | N[C@]1(c2ccccc2Cl)CCCCC1=O [(S)-norketamine] | ~2.25 | 
